This passage reports IC50 results from patent US20060079453A1, “Hla binding peptides and their uses” (priority 2002, published 2006).

“And” between values parts separate entries of the source, which are not always exact repeats. Identical values can stand only once. Like-named read-outs stand apart in the source and are kept apart here. No end group written: not given here.

What all share (test): biochemical
What all share (assay type): binding

In test [1] the target is HLA-B*4501 (Homo sapiens, UniProt P01889, A329T/A65T/A93T/A95T/C349S/D138N/D201E/D98Y/E176V/E187L/E204Q/E69K/H137Y/K202T/L119W/N87E/Q56L/Q94N/R155S/R180D/S121R/S35A/S48T/V127L/V306I/V36M/W191S/Y140L/Y33H/Y91S).
The target in test [2] is HLA-B*1801 (Homo sapiens, UniProt P01889, A329T/A93T/A95T/C349S/D201E/D54G/D98Y/E176V/E187T/E204Q/E69T/K202T/Q94N/R155S/R180L/S121R/V306I/Y140S/Y195H/Y33H/Y91S).
Test [3] deals with HLA-B*4403 (Homo sapiens, UniProt P01889, A223V/A65T/A93T/A95T/D201E/D98Y/E176V/E187L/E204Q/E69K/G107R/H137Y/K202T/L105A/L119I/N104T/N87E/Q56L/Q94N/R106L/R155S/R180L/S101N/S121R/S35A/S48T/T118I/V36M/W191S/Y140D/Y91S).
In test [4] the target is HLA-B*4002 (Homo sapiens, UniProt P01889, A65T/A93T/A95T/D138N/D201E/D98Y/E176V/E204Q/E69K/K202T/N87E/Q56L/Q94N/R180L/S48T/Y33H/Y91S).
Test [5] addresses HLA-B*4001 (Homo sapiens, UniProt P01889, A65T/A93T/A95T/D138N/D98Y/E176V/E69K/N87E/Q56L/Q94N/R180L/S121R/S35A/S48T/T167S/V36M/W171L/Y33H/Y91S).
For test [6], the target named is HLA-B*4402 (Homo sapiens, UniProt P01889, A223V/A65T/A93T/A95T/D201E/D98Y/E176V/E187L/E204Q/E69K/G107R/H137Y/K202T/L105A/L119I/N104T/N87E/Q56L/Q94N/R106L/R155S/R180D/S101N/S121R/S35A/S48T/T118I/V36M/W191S/Y140D/Y91S).

Consider AENLWFTVY, for which the IC50 was 90 nM in test [1]; 360 nM in test [2]; 62 nM in test [3]; 668 nM in test [4]; 699 nM in test [5].

Regarding QEILDLWV, the IC50 was 5500 nM in test [1] (B*4501); over 22800 nM in test [2] (B*1801); 5920 nM in test [3] (B*4403); 1720 nM in test [4] (B*4002); over 81400 nM in test [6] (B*4402).

With AENLVVTVY, the IC50 in test [1] came out at 718 nM; in test [2], 62 nM; in test [3], 203 nM; in test [4] it was 1340 nM; in test [5], 876 nM.

For AENLWVTVY, the IC50 in test [1] (B*4501) was 68 nM and 200 nM and 301 nM; in test [2] (B*1801) it was 51 nM and 155 nM and 122 nM; in test [3] (B*4403), 43 nM and 284 nM; in test [4] (B*4002), 90 nM and 547 nM; in test [6] (B*4402), 66 nM and 308 nM; in test [5] (B*4001), 1360 nM and 1580 nM.

Turning to AENLWVTVI, the IC50 worked out at 54 nM in test [1]; 11200 nM in test [2]; 88 nM in test [3]; 7.3 nM in test [4]; 14 nM in test [5].

Turning to GEFPYKAAA, the IC50 in test [1] (B*4501) worked out at 11 nM; in test [3] (B*4403), 2540 nM; in test [4] (B*4002) it was 3.9 nM; in test [6] (B*4402), 746 nM; in test [5] (B*4001), 170 nM.

Turning to KEKGGLDGLI, the IC50 is 9990 nM in test [1] (B*4501); over 22800 nM in test [2] (B*1801); 3630 nM in test [3] (B*4403); 233 nM in test [4] (B*4002); 14700 nM in test [6] (B*4402).

Take MDIDPYKEF: the IC50 amounted to 2610 nM in test [1] (B*4501); 169000 nM in test [2] (B*1801); 1950 nM in test [3] (B*4403); 382 nM in test [4] (B*4002); 21700 nM in test [6] (B*4402); 3700 nM in test [5] (B*4001).

Consider NENLWVTVY, for which the IC50 was 38 nM in test [2]; 224 nM in test [3]; 11800 nM in test [4]; 453 nM in test [6]; over 72700 nM in test [5].

Consider ATNLWVTVY, for which the IC50 in test [1] (read-out: B*4501) was over 49000 nM; in test [2] (read-out: B*1801), 17600 nM; in test [3] (read-out: B*4403) it was over 43000 nM; in test [4] (read-out: B*4002), over 155000 nM; in test [5] (read-out: B*4001), 487 nM.

For AENLWVTVR, the IC50 in test [1] was determined as 233 nM; in test [2] it was 33000 nM; in test [3] it was 1470 nM; in test [4] it was 1740 nM.

For the sequence AEMGKFKFSY, the IC50 was determined as 283 nM in test [1] (B*4501); 1520 nM in test [2] (B*1801); 28 nM in test [3] (B*4403); 622 nM in test [4] (B*4002); 146 nM in test [6] (B*4402).

On to SEAIYTFQF, for which the IC50 in test [1] (B*4501) was 293 nM; in test [2] (B*1801) it was 5.7 nM; in test [3] (B*4403) it was 20 nM; in test [6] (B*4402) it was 4.8 nM; in test [5] (B*4001) it was 967 nM.

For the sequence AENLWNTVY, the IC50 stood at 336 nM in test [2]; 81 nM in test [3]; 957 nM in test [4]; 66 nM in test [6]; 1340 nM in test [5].

Regarding AENLWVTVC, the IC50 in test [1] worked out at 146 nM; in test [2], 178000 nM; in test [3] it was 2270 nM; in test [4], 1420 nM; in test [6] it was 5590 nM.

On to GEFGGYGSV, for which the IC50 came out at 40 nM in test [1] (B*4501), 534 nM in test [3] (B*4403), 6.4 nM in test [4] (B*4002) and 2340 nM in test [6] (B*4402).

Turning to AEGIVTGQY, the IC50 in test [1] (B*4501) amounted to 418 nM; in test [2] (B*1801) it was 7180 nM; in test [3] (B*4403), 12 nM; in test [6] (B*4402) it was 255 nM; in test [5] (B*4001) it was 6460 nM.

Consider AENLYVTVF, for which the IC50 in test [1] (B*4501) is 69 nM; in test [3] (B*4403) it was 47 nM; in test [4] (B*4002), 3.1 nM; in test [6] (B*4402), 39 nM; in test [5] (B*4001), 17 nM.

As to KEKGGLDGL, the IC50 was 9930 nM in test [1] (B*4501); over 22800 nM in test [2] (B*1801); over 10500 nM in test [3] (B*4403); over 81400 nM in test [6] (B*4402); 55 nM in test [5] (B*4001).

As for AETFYVDGA, the IC50 was 38 nM in test [1] (B*4501); over 6710 nM in test [2] (B*1801); 6920 nM in test [3] (B*4403); over 21200 nM in test [6] (B*4402); 21600 nM in test [5] (B*4001).

For AENLWVTVW, the IC50 in test [1] worked out at 204 nM; in test [2], 22600 nM; in test [3], 324 nM; in test [5] it was 1300 nM.

For SEAPKYAIL, the IC50 in test [1] (B*4501) stood at 479 nM; in test [2] (B*1801), 2260 nM; in test [3] (B*4403), 2260 nM; in test [4] (B*4002), 7.8 nM; in test [6] (B*4402) it was 762 nM.

Turning to AENLWVNVY, the IC50 stood at 266 nM in test [1], 76 nM in test [3] and 159 nM in test [6].

Regarding GELSYLNV, the IC50 in test [1] (B*4501) was 784 nM; in test [2] (B*1801), over 24800 nM; in test [3] (B*4403) it was 23700 nM; in test [4] (B*4002) it was 100 nM; in test [6] (B*4402), 19000 nM.

AEDLWVTVY: the IC50 in test [1] (B*4501) amounted to 1840 nM; in test [2] (B*1801), 354 nM; in test [3] (B*4403) it was 469 nM; in test [4] (B*4002), 3520 nM; in test [6] (B*4402), 2330 nM.

As for SEAIHTFQY, the IC50 was 25 nM in test [2] (B*1801); 16 nM in test [3] (B*4403); 1800 nM in test [4] (B*4002); 18 nM in test [6] (B*4402); 2900 nM in test [5] (B*4001).

Regarding YENLWVTVY, the IC50 in test [1] was 10700 nM; in test [2], 29 nM; in test [3] it was 369 nM; in test [4] it was 324 nM; in test [6], 640 nM.

Take AENTWVTVY: the IC50 was 442 nM in test [1]; 213 nM in test [2]; 166 nM in test [3]; 386 nM in test [6]; 1450 nM in test [5].

In the case of AENLTVTVY, the IC50 in test [1] worked out at 793 nM; in test [3], 208 nM; in test [6], 327 nM; in test [5] it was 689 nM.

For AETLWVTVY, the IC50 in test [1] turned out to be 774 nM; in test [2] it was 199 nM; in test [3], 221 nM; in test [4], 198 nM; in test [6] it was 501 nM.

In the case of AENLWVTPY, the IC50 is 122 nM in test [1]; 41 nM in test [2]; 44 nM in test [3]; 127 nM in test [6]; 274 nM in test [5].

For the sequence AENLWVTVQ, the IC50 in test [1] turned out to be 100 nM; in test [2], 49600 nM; in test [3] it was 188 nM; in test [4] it was 85 nM; in test [6], 1220 nM.

With AEMGKGSFKY, the IC50 in test [1] (B*4501) is 305 nM; in test [2] (B*1801), 1620 nM; in test [3] (B*4403), 90 nM; in test [4] (B*4002) it was 3820 nM; in test [5] (B*4001), 6430 nM.

Regarding AENLWVDVY, the IC50 in test [2] stood at 415 nM; in test [3], 92 nM; in test [4], 3440 nM; in test [6], 334 nM; in test [5] it was 700 nM.

Regarding AENLWLTVY, the IC50 in test [2] amounted to 666 nM; in test [3], 226 nM; in test [4] it was 884 nM; in test [6], 647 nM; in test [5], 1700 nM.

AENLKVTVY: the IC50 in test [1] was 9620 nM; in test [2], 138 nM; in test [3], 487 nM; in test [6] it was 253 nM; in test [5], 7750 nM.

In the case of TEPAAVGVGAV, the IC50 in test [1] (B*4501) was 8240 nM; in test [2] (B*1801), over 8120 nM; in test [3] (B*4403), 459 nM; in test [5] (B*4001), 930 nM.
